ChEMBL document CHEMBL2401734, “Structures and biosynthesis of 12-membered macrocyclic depsipeptides from Streptomyces sp. ML55” (Bioorg Med Chem Lett, 2013)
Active and inactive are the calls of the source. The calls are words filed in the database; no cut-off is given here.

Tested on: HT-29
Experiment: Antiproliferative activity against human HT-29 cells after 1 to 15 hrs
Format: functional, cell-based

Row | SMILES | Activity
1 | CCC(C)C1OC(=O)[C@@H](NC(=O)c2cccc(O)c2O)[C@H](C)OC(=O)C(C)(C)C(=O)C(CC(C)C)OC1=O (some centres not stated) | Active
2 | CCC(C)C1OC(=O)[C@@H](NC(=O)c2cccc(N)c2O)[C@H](C)OC(=O)C(C)(C)C(=O)C(CC(C)C)OC1=O (some centres not stated) | Active
